Source: patent US5411965A, “Use of delta opioid receptor antagonists to treat cocaine abuse” (Arizona Board of Regents, priority 1993, dated 1995)
“Also recorded” adds a separate entry of the source. Like-named read-outs stand apart in the source and are kept apart here.

Tests used:
[1] = Conditioned place preference (CPP) test; type: in vivo, male Lewis rats; settings: for conditioned place preference, cocaine alone: cocaine 15 mg/kg s.c. plus placebo
From the text: Testing associated with conditioning place preference (CPP) procedures involves some rather straightforward assumptions and observations.
To test NTI's ability to block cocaine's ability to establish a CPP, male, Lewis rats were subjected to standard procedures associated with testing for place preferences. The rats were first habituated to being handled.
Then, the rats were put into an alley having two distinctive sides with the barrier separating the two sides not in place, i.e., a baseline preference for the two sides was measured. After baseline was determined, the conditioning procedures began.
The conditioning procedures were the same for all rats, except that there were four different regimens of drug administration, one regimen for each of four different groups of rats (12 rats a group). The conditioning procedure involved one set of kind of injections before a rat was placed in one side of the alley and another set of kind of injections before being placed in the other side.
The group of rats that received the procedures usually used to show a cocaine-produced CPP, received cocaine-injections (plus a placebo injection) before being put into the putative side of conditioning. The dose of cocaine was 15 mg/kg given subcutaneously, a relatively large dose of cocaine. On the next day, this group received placebo injections before being put into the alternative side. These procedures were repeated throughout conditioning.
There was also a group that received placebos (vehicles for both cocaine and NTI) before being placed in either side of the chamber. This is a typical control group and can be used to determine if merely the procedures themselves of handling the rats leads rats to change their preference for a side of the alley.
There was yet another control group. This group received NTI before being placed in the side of putative conditioning and placebos at other times. […] So, the basic conditions for testing a NTI's effects on cocaine's ability to establish a CPP indicative of cocaine's positivity were set.
FIG. 2 depicts the mean percent change from baseline for each of the experimental groups. The group represented by the open bar (far left bar) received only injections of placebos before being put into either side of the apparatus, i.e., this is a placebo control group. […] The striped bar depicts the mean scores of the group that received NTI before being placed into the side of conditioning and saline before being placed into the other side. […] The solid black bar depicts the scores of the group getting cocaine before being put into the side of conditioning (saline or placebo before being put into the other side). […] The cross-hatched bar depicts the mean score of the group treated with cocaine but also receiving NTI.

[2] = type: in vivo, rats; settings: for pressing for brain stimulation, cocaine alone: cocaine (5.0 mg/kg in Example 5); for pressing for brain stimulation, NTI plus MDMA: in words
From the text: When rats are fixed with chronically indwelling bipolar electrodes for electrical stimulation of the medial forebrain bundle, they will press levers for brief durations of stimulation. The higher the intensity of stimulation, the greater the pressing. […] These relationships plus extant theory provide the rationale for using pressing for brain stimulation as a means of assessing the reinforcing effects of drugs and assessing which drugs might affect another drug's reinforcing effects.
The particulars of the procedures used herein are briefly summarized. Further information is in Reid (cited above) and Reid et al. (Life Sciences, 52, PL67-71 (1993)). Rats were fixed with chronically indwelling bipolar electrodes. Using standard stereotaxic methods, which includes full anesthesia, the tips of the electrode were aimed to stimulate the medial forebrain bundle as it traverses the lateral hypothalamus. With the skull held in a stereotaxic instrument so that a plane between bregma and lamba was perpendicular to the shaft of the electrode, the following stereotaxic coordinates were used: 3.5 mm posterior to brema, 1.6 mm lateral to the midline, and 8.6 mm below the surface of the skull.
The apparatus of these tests was a Skinner box (24×30 ×38 cm) equipped with a lever (2.5×2 cm). Each box was fixed with electrical leads and a slip-ring apparatus that allowed the rat to be connected to the electrical stimulator for intracranial stimulation, but allowed the rat to move freely in the box.
Upon full recovery from surgery, rats were trained to press a lever in the Skinner box for electrial stimulation of the brain. The electrical stimulation was 60 Hz sine waves of 0.3 sec. The maximum intensity used was of 50 microAmps. Each lever press delivered one 0.3-sec of brain stimulation.
Just after rats learned to press the lever, the intensity of the brain stimulation was varied. Three intensities were chosen. The lowest intensity was one that was barely sufficient to sustain lever pressing. The highest intensity sustained high rates of pressing, but not the highest rates that a rat can achieve. The medium intensity was about midway between the lowest and the highest. Once a set of intensities were established for each rat, those intensities remained fixed throughout the balance of testing. […] Each rat was under a daily regimen. They were allowed to press for each of three intensities of brain stimulation for 10 minutes. […] They were allowed to press the lever under this daily regimen under level-pressing rates became stable. Then, drugs (or placebos) were administered.
The methods of Example 5 were nearly the same as those of Example 4. Rats were fixed, using standard procedures, with chronically indwelling electrodes for stimulation of the medial forebrain bundle. Subsequent to recovery from surgery, they were trained to press for brain stimulation. After each learned to press, they were put on a daily regimen. That daily regimen involved pressing for 5 min at a high intensity of brain stimulation, followed by 5-minute sessions with medium, low, low, medium and then high intensity. Intensities were set for each rat so that pressing rate for the low intensity was rather slow (the low intensity being near lower threshold for maintaining pressing), pressing for the high intensity was at a high rate, and pressing for the medium intensity was between the rate for low and high intensity. Pressing at each intensity was averaged for an index of rat's responsiveness at that intensity.

[3] = type: in vivo, rats; settings: cocaine 0.4 mg/kg a lever press; one-hour session
From the text: When rats are fixed with chronically indwelling intravenous catheters, drugs can be administered as the rats are walking around. These same rats can be put into a box equipped with a lever, the depression of which actuates a pump that can deliver drug through the catheter, i.e., the rats can be put into a Skinner box with drug administration a continguency of lever-pressing. […] See J. R. Weeks et al., "Screening for Drug Reinforcement Using Intravenous Self-Administration in the Rat," Bozarth, cited above, at pages 35-44.
Rats were fixed with chronically indwelling catheters for the delivery of doses of cocaine directly into their veins. Subsequently, the rats were trained to press a lever for small bolus injections of cocaine (0.4 mg/kg of cocaine a lever press with an injection volume of 10 microliters of drug plus saline solution, the drug carrier). Rats were given one-hour opportunities daily to press for cocaine.

[4] = drug alone; literature; cited from earlier work
dopamine transporter = settings: in words; cited from earlier work
delta opioid receptor = assay: In vivo antagonism of DSLET antinociception (writhing); parameters: species or system mice; settings: 20 mg/kg s.c.; in words
Experimental: When mice are injected with an irritant, they respond by a characteristic writhing that can be inhibited by analgesics. Consequently, the writhing response can be used to index the effects of particular opioids.

mu opioid receptor = settings: agonist morphine in GPI; antagonist 100 or 200 nM, 15 min; read-out: Ke; cited from earlier work

Structure (SMILES) | conditioned place preference, cocaine alone [1] | conditioned place preference, cocaine alone ([1]; listed as cocaine) | pressing for brain stimulation, cocaine alone [2] | pressing for brain stimulation, cocaine alone ([2]; listed as cocaine) | cocaine self-administration, average presses without NTI [3] | conditioned place preference [4] | dopamine transporter binding / dopamine reuptake inhibition (dopamine transporter) | blocking of writhing inhibition due to DSLET (delta opioid receptor) | conditioned place preference, NTI alone ([1]; rat, in vivo) | conditioned place preference, NTI plus cocaine ([1]; rat, in vivo) | mean presses at High intensity, MDMA plus Naltrindole ([2]; High intensity, combination with MDMA, six rats) [presses per ten minutes] | mean presses at Low intensity, MDMA plus Naltrindole ([2]; Low intensity, combination with MDMA, six rats) [presses per ten minutes] | mean presses at Medium intensity, MDMA plus Naltrindole ([2]; Medium intensity, combination with MDMA, six rats) [presses per ten minutes] | pressing for brain stimulation, NTI alone ([2]; NTI by itself, listed as NTI) | pressing for brain stimulation, NTI plus MDMA ([2]; listed as NTI) | pressing for brain stimulation, NTI plus MDMA ([2]; listed as naltrindole) | pressing for brain stimulation, NTI plus amphetamine ([2]; rat, in vivo) | pressing for brain stimulation, NTI plus cocaine ([2]; rat, in vivo) | pressing for brain stimulation, NTI plus morphine ([2]; rat, in vivo) | Kb (mu opioid receptor) [nM]
COC(=O)[C@H]1[C@@H](OC(=O)c2ccccc2)C[C@@H]2CC[C@H]1N2C [Cocaine, methyl 3-(benzoyloxy)-8-methyl-8-azabicyclo[3.2.1]octane-2-carboxylate] | established a positive CPP; also recorded: produced a significant (asterisk) positive place preference | statistically significantly different than its baseline score and is significantly larger than the placebo-control group's scores | leads to a marked increase in pressing compared to pressing under the influence of placebo | large increase in pressing; also recorded: increased pressing for stimulation | about 11 presses a session | establishes a CPP | binds to the dopamine transporter and inhibits dopamine reuptake |  |  |  |  |  |  |  |  |  |  |  |  | 
Oc1ccc2c3c1O[C@H]1c4[nH]c5ccccc5c4C[C@@]4(O)[C@@H](C2)N(CC2CC2)CC[C@]314 [Compound 1, 17-(cyclopropylmethyl)-6,7-dehydro-3,14β-dihydroxy-4,5α-epoxy-6,7-2',3'-indolmorphinan] |  |  |  |  |  |  |  | effectively blocked the writhing inhibition due to DSLET | did not significantly change from baseline to testing; also recorded: not statistically different at testing from baseline; also recorded: did not by itself establish a place preference; also recorded: did not produce place preferences or place aversions | significantly different from the cocaine group's scores but not different from the other groups' scores; also recorded: blocked cocaine's ability to produce a positive CPP; also recorded: antagonized by naltrindole | 825 | 98 | 342 | no demonstratable effect; also recorded: did not, by itself, reduce pressing for brain stimulation | reduced the increased pressing associated with the administration of MDMA | pressing at the low intensity is reduced considerably and there is no reliable difference in pressing under the combination of drugs compared to placebo | pressed somewhat less under the influence of NTI (10 mg/kg) plus amphetamine than they did under the influence of placebos; also recorded: NTI can modulate amphetamine's as well as cocaine's reinforcing effects; also recorded: reduced pressing similar to rate under placebo | NTI blocked cocaine's effects; also recorded: blocked the effects of cocaine; also recorded: NTI blocked cocaine's ability to be reinforcing; also recorded: reduced rate of pressing under the influence of cocaine to that similar to rate of pressing under placebo alone; also recorded: extraordinarily effective in blocking cocaine's salient effects | hardly affected the effects of morphine; also recorded: negligible; also recorded: did not markedly or significantly affect rate of pressing | 29.4
